Reference: patent EP2008653A1, “Serotonergic compounds for treating neuronal illnesses” (Charité-Universitätsmedizin Berlin, priority 2007, dated 2008)

Test system: fokalen Ischämie in Mäusen
Experiment: Mouse model of focal ischemia (30 min MCAo/reperfusion), overall outcome
Type: in vivo, Mäuse
Settings: Mirtazapin 20 mg/kg i.p. starting 7 days after MCAo/reperfusion
Source text: Die erfindungsgemäßen neuroprotektiven und neuroregenerativen/neuroplastischen Effekte von SSRI auf neuronale Krankheiten wurde anhand eines anerkannten Tiermodells zur fokalen Ischämie in Mäusen untersucht. […] Tag nach der Induktion der Ischämie einsetzte.
Anschließend wurden die SRRI Effekte auf das Volumen der ischämischen Läsionen ausgewertet. Ferner wurden die Tiere Standard-Verhaltenstests unterzogen. Zudem wurden die Konzentrationen ausgewählter Neurotransmitter erfaßt.
Die Tierversuche wurden nach den Maßgaben des Tierschutzgesetzes in Übereinstimmung mit institutionellen und internationalen Richtlinien durchgeführt. Männliche 12936/SvEv-Mäuse (18-20 g, Bundesamt für Gesundheitsschutz Berlin) wurden in Gruppen von 4-5 Mäusen pro Käfig in Standardlaborkäfigen bei einer Umgebungstemperatur von 20-21°C bei einem 12 h-Licht-Dunkel-Rhythmus (8.00 Uhr/20.00 Uhr) mit freiem Zugang zu Futter und Wasser gehalten. Die Narkose der Mäuse erfolgte mit 1% Isofluran in 69% N20 und 30% 02 mit einem Narkoseverdampfer. Die Tiere wurden einer 30 min Fliamentokklusion der Arteria cerebri media (MCAo) unterworfen, wobei die Körpertemperatur und der regionale cerebrale Blutfluss wie beschrieben gemessen wurden (Endres et al., 1998). […]

SMILES: CN1CCN2c3ncccc3Cc3ccccc3C2C1 (racemic) [Mirtazapin, (RS)-(±)-2-Methyl-1,2,3,4,10,14b-hexahydropyrazino [2,1-a]pyrido[2,3-c][2]benzazepin]
- Ergebnisse (overall outcome in the MCAo model): entsprachen denjenigen, die mit Citalopram erreicht wurden
